Results taken from article PMC12040169 (PLOS Biology, 2025).
Values joined by “and” are separate entries in the source; they are usually repeats but may differ in a detail not shown here. Identical values can stand only once.

Legend:
HeLa = conditions: bulk resorufin, single well, 28.5 h, 10 µM, Bulk resorufin fluorescence
in vitro [1] = conditions: human, hela cells, % viability
in vitro [2] = assay: in vitro; parameters: Viability of infected HeLa host cells, resazurin conversion, bulk resorufin fluorescence relative to DMSO; conditions: human, hela cells; bulk resorufin, mean of 2
[3] = test system: T1, C. trachomatis L2/434/Bu expressing GFP (CTL2-GFP); assay: microbe, parasite or virus in culture; parameters: C. trachomatis total inclusion area by high-content imaging, normalised to DMSO; conditions: Chlamydia trachomatis, HeLa, 28.5 h; total inclusion area; read-out: % of control remaining
T1 construct: L2/434/Bu GFP intracellular growth in HeLa cells
Procedure, shortened: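 After bulk GFP and resorufin reads, fixed cells were Hoechst-stained and imaged to count chlamydial inclusions and host nuclei. Total inclusion area and number tracked bacterial growth, and nuclei number tracked host viability. MICs were derived, and 36,785 drug-like molecules were screened this way.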

[4] = test system: T2, CTL2-GFP (C. trachomatis L2/434/Bu, GFP-expressing); assay: microbe, parasite or virus in culture; parameters: Intracellular C. trachomatis growth in HeLa cells, bulk GFP fluorescence relative to DMSO; conditions: Chlamydia trachomatis, HeLa, 28.5 h; bulk GFP, mean of 2; read-out: % of control remaining
T2 construct: L2/434/Bu, GFP-expressing
Description: MICs were calculated as described above.

Cc1cc2ncn(C3CC(=O)N(c4ccc(C(=O)O)cc4)C3=O)c2cc1C (centres unmarked) [CBK286586]
% viability (HeLa): 92.4%
viability at 28.5 h, 10 µM (in vitro [1]): 89.4%

COc1ccc(/C=C/C(=O)O)cc1S(=O)(=O)N1CCOCC1 [CBK261247]
% viability (HeLa): 84.7%
viability at 28.5 h, 10 µM (in vitro [1]): 101%

O=c1[nH]nc(COc2ccc(Br)cc2)o1 [CBK288526]
% viability (HeLa): 110% and 86.7%

O=C(O)/C=C\C(=O)Nc1ccccc1C#Cc1ccccc1 [CBK261680]
% viability (HeLa): 83.2%
viability at 28.5 h, 10 µM (in vitro [1]): 82.9%

O=C(O)C(Cc1ccc(O)cc1)N1C(=O)c2ccccc2C1=O (centres unmarked) [CBK262479]
% viability (HeLa): 80.4%
viability at 28.5 h, 10 µM (in vitro [1]): 84.1%

CS(=O)(=O)N1C2CCC(C2)[C@H]1COc1cccc(C(F)(F)F)c1 (some centres unmarked) [CBK284596]
% viability (HeLa): 107%
viability at 28.5 h, 10 µM (in vitro [1]): 98.7%

CCOC(=O)c1sc2nccc(Nc3ccccc3)c2c1N [CBK115365]
% viability (HeLa): 91.8%
viability at 28.5 h, 10 µM (in vitro [1]): 90.8%

CC(C)(C)OC(=O)N1CCC[C@H]([C@H](O)c2ccc(F)cc2)C1 [CBK284298]
% viability (HeLa): 80.1%
viability at 28.5 h, 10 µM (in vitro [1]): 92.3%

C[C@@H](Cn1c(=O)oc2ccccc21)NC(=O)Cc1cccs1 [CBK284533]
% viability (HeLa): 79.8%
viability at 28.5 h, 10 µM (in vitro [1]): 92.9%

CC1=CC(C)C(C(=O)O)C(C(=O)N2CCN(C)CC2)C1 (centres unmarked) [CBK027311]
% viability (HeLa): 102%

C=CCn1cc(CN2C[C@@H]3CCCN3C[C@H]2CCSC)c(C)n1 [CBK285420]
% viability (HeLa): 106%
viability at 28.5 h, 10 µM (in vitro [1]): 87.6%

O=C(O)Cc1cc(C(=O)/C=C/c2c(Cl)cccc2Cl)ccc1O [CBK013106]
% viability (HeLa): 100%
viability at 28.5 h, 10 µM (in vitro [1]): 99%

Cc1ccc(Nc2cc(N3CCC(C(=O)O)CC3)ncn2)cc1 [CBK288121]
% viability (HeLa): 91.3%
viability at 28.5 h, 10 µM (in vitro [1]): 104%

NS(=O)(=O)c1ccc2nc(NC(=O)c3ccc(Cl)s3)sc2c1 [CBK287320]
% viability (HeLa): 89.6%
viability at 28.5 h, 10 µM (in vitro [1]): 108%

Cc1cc(CNC(=S)NC2CCCCC2)nn1C [CBK288519]
% viability (HeLa): 94%
viability at 28.5 h, 10 µM (in vitro [1]): 82.5%

CS(=O)(=O)Nc1ccc2[nH]c(=O)c(C(=O)NCc3ccc(Cl)cc3)cc2c1 [CBK017560]
% viability (HeLa): 102%
viability at 28.5 h, 10 µM (in vitro [1]): 97.9%

COc1ccc(C(NC(=O)Cc2cn3ccsc3n2)C2CC(O)C2)cn1 (centres unmarked) [CBK306910]
% viability (HeLa): 97%
viability at 28.5 h, 10 µM (in vitro [1]): 82.2%

Cc1nn(C)c(Cl)c1S(=O)(=O)Nc1nc(=O)[nH]cc1F [CBK067568]
% viability (HeLa): 97.9% and 87.2%
viability at 28.5 h, 10 µM (in vitro [1]): 99.1%

Cc1oc(C2CC2)cc1C(=O)N[C@H](C)Cn1nnc2ccccc21 [CBK284258]
% viability (HeLa): 80.8%
viability at 28.5 h, 10 µM (in vitro [1]): 78.1%

CCOC(=O)N1CCC(NS(=O)(=O)c2ccc3ccccc3c2)CC1 [CBK045452]
% viability (HeLa): 93.1% and 96.6%
viability at 28.5 h, 10 µM (in vitro [1]): 92%

CCCO/N=C\c1ccc(-n2cnnc2)cc1 [CBK018921]
% viability (HeLa): 77.5% and 99.8%

O=C(CN1C(=O)[C@H]2CCCN2C(=O)c2ccccc21)NC1CC1 [CBK282436]
% viability (HeLa): 122% and 91.3%

O=C(NC[C@H]1CCCN(C(=O)c2ccccn2)C1)c1cccs1 [CBK284262]
% viability (HeLa): 105% and 83.9%

COc1ccc(CCNC(=O)C2CCCCC2C(=O)O)cc1 (centres unmarked) [CBK262636]
% viability (HeLa): 86.3% and 110%

Cc1cn(C2CC(O)C(CO)O2)c(=S)[nH]c1=O (centres unmarked) [CBK012339]
% viability (HeLa): 112% and 90.8%

O=C(O)c1ccc(CNCc2c(F)cccc2Cl)cc1 [CBK269496C]
% viability (HeLa): 111%

O=C(Nc1nc[nH]n1)NC1CCCCC1 [CBK017342]
% viability (HeLa): 119% and 94.5%

C[C@@H]1CN(Cc2ccco2)CCN1C(=O)Cc1ccccc1F [CBK284257]
% viability (HeLa): 83.4% and 106%

CC(C)NC(=O)CN1C(=O)[C@H]2CCCN2C(=O)c2ccccc21 [CBK282437]
% viability (HeLa): 112% and 88.6%

COc1ccc(C(=O)Nc2nc3nc(C)cc(C)c3s2)cc1 [CBK287755]
% viability (HeLa): 105% and 83%

Cc1c(C(=O)O)sc2nc(SCC(=O)NCc3ccccc3)[nH]c(=O)c12 [CBK301214K]
% viability (HeLa): 107%

O=C(NC1CC1)[C@@H]1C=CCN1C(=O)c1ccc(F)cc1F [CBK284279]
% viability (HeLa): 80.5% and 104%

COCCn1cnc2sc(C(=O)NCc3ccccc3OC)c(C)c2c1=O [CBK071862]
% viability (HeLa): 95.1% and 64.7%

Cc1cc(NC(=O)c2ccc(Br)o2)nc2c1c(=O)oc1ccccc12 [CBK287440]
% viability (HeLa): 85.8% and 119%

Oc1ccc(Nc2ncnc3c2oc2ccccc23)cc1 [CBK287967]
% viability (HeLa): 92.3% and 113%

O=C(O)c1cccc(S(=O)(=O)N2CCN(C(=O)c3ccccc3)CC2)c1 [CBK275920]
% viability (HeLa): 113% and 91.5% and 99.3%

O=C(O)c1cc(S(=O)(=O)NCc2ccco2)c(Cl)cc1Cl [CBK113171]
% viability (HeLa): 107% and 83.2%

O=c1[nH][nH]c2c1cnc1c(C(F)(F)F)cccc12 [CBK287996]
% viability (HeLa): 113% and 84.4%

CCN(CC)c1ccc2cc(/C(C)=N/O)c(=O)oc2c1 [CBK009063]
% viability (HeLa): 108% and 84.7%

Cc1cc(CC(=O)N2CCCC3(CCN(C(=O)c4ccoc4)C3)C2)on1 (centres unmarked) [CBK131628]
% viability (HeLa): 106% and 82.1%

CC(N)C(=O)NC1CCN(c2nc3c(cc2F)c(=O)c(C(=O)O)cn3C23CC(C2)C3)C1 (centres unmarked) [CBK016632]
viability at 28.5 h, 1 µM (in vitro [2]): 90.2%
viability at 28.5 h, 5 µM (in vitro [2]): 89.5%
viability at 28.5 h, 10 µM (in vitro [2]): 87%
viability at 28.5 h, 10 µM (in vitro [1]): 80.5%
activity at 1 µM [3]: 11.5%
activity at 5 µM [3]: 1.17%
activity at 10 µM [3]: 0.494%
activity at 1 µM [4]: 15.3%
activity at 5 µM [4]: 3.24%
activity at 10 µM [4]: 7.52%

Cc1noc(NS(=O)(=O)c2ccc(NC(=O)COc3ccccc3Br)cc2)c1C [CBK263918]
viability at 28.5 h, 1 µM (in vitro [2]): 96.5%
viability at 28.5 h, 5 µM (in vitro [2]): 96.5%
viability at 28.5 h, 10 µM (in vitro [2]): 95.3%
viability at 28.5 h, 10 µM (in vitro [1]): 89.4%
activity at 1 µM [3]: 91.6%
activity at 5 µM [3]: 88.5%
activity at 10 µM [3]: 31%
activity at 1 µM [4]: 97.7%
activity at 5 µM [4]: 57.6%
activity at 10 µM [4]: 25.5%

Brc1ccc(CSc2nc[nH]n2)cc1 [CBK027819]
% viability (HeLa): 98.5%

CC(NC(=O)N(Cc1ccccc1C(F)(F)F)CC(C)(C)CN)c1cccc2ccccc12 (centres unmarked) [CBK002422C]
viability at 28.5 h, 1 µM (in vitro [2]): 90.1%
viability at 28.5 h, 5 µM (in vitro [2]): 94.1%
viability at 28.5 h, 10 µM (in vitro [2]): 101%
viability at 28.5 h, 10 µM (in vitro [1]): 91.9%
activity at 1 µM [3]: 78.4%
activity at 5 µM [3]: 41%
activity at 10 µM [3]: 12.2%
activity at 1 µM [4]: 112%
activity at 5 µM [4]: 51.5%
activity at 10 µM [4]: 34.5%

COC(=O)c1ccc(-c2cc3ccccc3o2)nc1 [CBK149228]
% viability (HeLa): 96.5%

Cc1ccc(N2C(=O)c3[nH]nc(C)c3C2c2ccc(O)cc2)cc1 (centres unmarked) [CBK287915]
viability at 28.5 h, 1 µM (in vitro [2]): 98%
viability at 28.5 h, 5 µM (in vitro [2]): 107%
viability at 28.5 h, 10 µM (in vitro [2]): 106%
viability at 28.5 h, 10 µM (in vitro [1]): 94.7%
activity at 1 µM [3]: 111%
activity at 5 µM [3]: 93.4%
activity at 10 µM [3]: 54.6%
activity at 1 µM [4]: 108%
activity at 5 µM [4]: 89.5%
activity at 10 µM [4]: 54.1%

Clc1ccc(COc2nccnc2OC2CCN(CC3CC3)CC2)cc1Cl [CBK083123]
% viability (HeLa): 104%

O=C(O)c1ccc(CNCc2c(F)cccc2Cl)cc1 [CBK269496]
% viability (HeLa): 82.3%

O=C(c1ccc(-c2ccc(F)cc2)o1)N1C[C@H]2CC[C@](O)(c3ccc(F)cc3)[C@H]2C1 [CBK286415]
viability at 28.5 h, 1 µM (in vitro [2]): 91.9%
viability at 28.5 h, 5 µM (in vitro [2]): 86.5%
viability at 28.5 h, 10 µM (in vitro [2]): 91.6%
viability at 28.5 h, 10 µM (in vitro [1]): 94.1%
activity at 1 µM [3]: 0.419%
activity at 5 µM [3]: 0.168%
activity at 10 µM [3]: 0.106%
activity at 1 µM [4]: 6.79%
activity at 5 µM [4]: 7.93%
activity at 10 µM [4]: 15.1%

O=S(=O)(Nc1nccs1)c1ccc(Nc2ncnc3ccccc23)cc1 [CBK269487C]
viability at 28.5 h, 1 µM (in vitro [2]): 93.3%
viability at 28.5 h, 5 µM (in vitro [2]): 99%
viability at 28.5 h, 10 µM (in vitro [2]): 86.3%
viability at 28.5 h, 10 µM (in vitro [1]): 93.8%
activity at 1 µM [3]: 140%
activity at 5 µM [3]: 53.6%
activity at 10 µM [3]: 28.6%
activity at 1 µM [4]: 141%
activity at 5 µM [4]: 72.9%
activity at 10 µM [4]: 35%
